In publication PMC5823688 (Molecular pharmaceutics, 2017):

Legend:
[1] = tested on: mitochondria of granta-519 tumor cells; experiment: Cytochrome C release from mitochondria of tumor cells; type: cell-based; details: 10 μM peptide; in comparison to a positive 1% Triton X-100 control; Figure S4
3T3 fibroblasts = details: MTS; after 120 h of treatment
SKOV3 cells = details: 10 μM polymer, 72 h; FITC-annexin V, flow cytometry
[2] = tested on: SKOV3 human ovarian cancer cells; details: all polymer concentrations (0 to 10 μM), 96 h, MTS
[3] = tested on: caspase 3/7 activity in SKOV3 cells; details: 0-10 μM polymer, 72 h

| Substance | cytochrome C release [1] | BIM-mediated cell death in 3T3 fibroblasts (3T3 fibroblasts) | cells staining positive for annexin V (SKOV3 cells) | cell viability [2] | change in caspase 3/7 activity relative to untreated cultures [3] |
| --- | --- | --- | --- | --- | --- |
| FLAhxMRPEI-WIAQELRRIGvDEFNAY [FLAhxBIM] | > 90% |  |  |  |  |
| poly[(DEAEMA)-co-(BMA)]-b-[(PEGMA300)-c-(MaCath-BIM)] [PolCathBIM] |  | no BIM-mediated cell death was observed | 87% |  |  |
| poly[(DEAEMA)-co-(BMA)]-b-[(PEGMA300)-c-(MaCathScrBIM)] [PolCathScrBIM] |  |  | 15% | greater than 90% | no change |
